Values of other authors in PubChem BioAssay AID1259409 (Chemical Carcinogenesis Research Information System (CCRIS), 2018).

Tested on: rodent chemically induced tumor inhibition, incidence and multiplicity
Test: CCRIS tumor inhibitor studies

In the case of `CCN(CC)C(=S)S`, the outcome (Carcinogen: DIETHYLNITROSAMINE, 55-18-5, Dose [Inhibitor]: 0, 50 MG/KG 1/WK FOR 5 WK ADMINISTERED 4 HR POST EACH CARCINOGEN DOSE (STUDY DURATION: 6 MO), Route [Inhibitor]: INTRAPERITONEAL, Species: RAT, Strain/Sex: BD6/FEMALE, Target Tissue: Type of Lesion: ESOPHAGUS: TUMOR, Dose [Carcinogen]: 80 MG/KG BW 1/WK FOR 5 WK, Promoter: NONE USED) is listed as 6%, 77, -1183%, p<0.001, the “tumour outcome (control, treated, inhibition, significance)” value (Carcinogen: DIETHYLNITROSAMINE, 55-18-5, Dose [Inhibitor]: 0, 50 MG/KG 1/WK FOR 5 WK ADMINISTERED 4 HR POST EACH CARCINOGEN DOSE (STUDY DURATION: 6 MO), Route [Inhibitor]: INTRAPERITONEAL, Species: RAT, Strain/Sex: BD6/FEMALE, Target Tissue: Type of Lesion: LIVER: TUMOR, Dose [Carcinogen]: 80 MG/KG BW 1/WK FOR 5 WK, Promoter: NONE USED) is listed as 44%, 77%, -75%, not significant and the “tumour outcome (control, treated, inhibition, significance)” value (Carcinogen: DIETHYLNITROSAMINE, 55-18-5, Dose [Inhibitor]: 0, 50 MG/KG 1/WK FOR 5 WK ADMINISTERED 4 HR POST EACH CARCINOGEN TREATMENT (STUDY DURATION: 6 MO), Route [Inhibitor]: INTRAPERITONEAL, Species: RAT, Strain/Sex: BD6/FEMALE, Target Tissue: Type of Lesion: ESOPHAGUS: TUMOR, Dose [Carcinogen]: 80 MG/KG BW 1/WK FOR 5 WK, Promoter: NONE USED) is listed as 14%, 94%, -571%, p<0.001. The “tumour outcome (control, treated, inhibition, significance)” value (Carcinogen: DIETHYLNITROSAMINE, 55-18-5, Dose [Inhibitor]: 0, 50 MG/KG 1/WK FOR 5 WK ADMINISTERED 4 HR POST EACH CARCINOGEN TREATMENT (STUDY DURATION: 6 MO), Route [Inhibitor]: INTRAPERITONEAL, Species: RAT, Strain/Sex: BD6/FEMALE, Target Tissue: Type of Lesion: LIVER: TUMOR, Dose [Carcinogen]: 80 MG/KG BW 1/WK FOR 5 WK, Promoter: NONE USED) was 52%, 44%, 15%, not significant, the “tumour outcome (control, treated, inhibition, significance)” value (Carcinogen: DIETHYLNITROSAMINE, 55-18-5, Dose [Inhibitor]: 0, 50 MG/KG 1/WK FOR 5 WK ADMINISTERED 24 HR POST EACH CARCINOGEN TREATMENT (STUDY DURATION: 6 MO), Route [Inhibitor]: INTRAPERITONEAL, Species: RAT, Strain/Sex: BD6/FEMALE, Target Tissue: Type of Lesion: LIVER: TUMOR, Dose [Carcinogen]: 80 MG/KG BW 1/WK FOR 5 WK, Promoter: NONE USED) was 52%, 32%, 38%, not significant and the “tumour outcome (control, treated, inhibition, significance)” value (Carcinogen: DIETHYLNITROSAMINE, 55-18-5, Dose [Inhibitor]: 0, 50 MG/KG 1/WK FOR 5 WK ADMINISTERED 24 HR POST EACH CARCINOGEN TREATMENT(STUDY DURATION: 6 MO), Route [Inhibitor]: INTRAPERITONEAL, Species: RAT, Strain/Sex: BD6/FEMALE, Target Tissue: Type of Lesion: ESOPHAGUS: TUMOR, Dose [Carcinogen]: 80 MG/KG BW 1/WK FOR 5 WK, Promoter: NONE USED) was 14%, 4%, 71%, not significant.

In the case of `C[C@@H](O)[C@@H]1NC(=O)[C@H](CCCCN)NC(=O)[C@@H](Cc2c[nH]c3ccccc23)NC(=O)[C@H](Cc2ccccc2)NC(=O)[C@@H](NC(=O)[C@H](N)Cc2ccccc2)CSSC[C@@H](C(=O)N[C@H](CO)[C@@H](C)O)NC1=O`, the “tumour outcome (control, treated, inhibition, significance)” value (Carcinogen: N-NITROSOBIS(2-OXOPROPYL)AMINE [60599-38-4], Dose [Inhibitor]: 0, 3 UG/KG/D FOR 4 WK BEGINNING 1 WK PRIOR TO FIRST CARCINOGEN (STUDY DURATION: 40 WK), Route [Inhibitor]: SUBCUTANEOUSLY IMPLANTED OSMOTIC PUMP, Species: HAMSTER, Strain/Sex: SYRIAN/FEMALE, Target Tissue: Type of Lesion: PANCREAS: ADENOCARCINOMA, Dose [Carcinogen]: 10 MG/KG BW ONCE/WK FOR 3 WK (STUDY DURATION: 40 WK), Promoter: NONE) is given as 8/18 (44%), 11/20 (55%), -25%, not significant and the “tumour outcome (control, treated, inhibition, significance)” value (Carcinogen: N-NITROSOBIS(2-OXOPROPYL)AMINE [60599-38-4], Dose [Inhibitor]: 0, 6 UG/KG/D FOR 4 WK BEGINNING 1 WK PRIOR TO FIRST CARCINOGEN (STUDY DURATION: 40 WK), Route [Inhibitor]: SUBCUTANEOUSLY IMPLANTED OSMOTIC PUMP, Species: HAMSTER, Strain/Sex: SYRIAN/FEMALE, Target Tissue: Type of Lesion: PANCREAS: ADENOCARCINOMA, Dose [Carcinogen]: 10 MG/KG BW ONCE/WK FOR 3 WK (STUDY DURATION: 40 WK), Promoter: NONE) is given as 8/18 (44%), 9/20 (45%), -2%, not significant.

In the case of `CC1CCC(=O)O1` (configuration not stated), the “tumour outcome (control, treated, inhibition, significance)” value (Carcinogen: BENZO[A]PYRENE, 50-32-8, Dose [Inhibitor]: 0.034 MMOL/G IN DIET FOR 5 WK BEGINNING 1 WK PRIOR TO CARCINOGEN DOSE (STUDY DURATION: 21 WK), Route [Inhibitor]: ORAL, Species: MOUSE, Strain/Sex: ICR/FEMALE, Target Tissue: Type of Lesion: FORESTOMACH: TUMOR, Dose [Carcinogen]: 1 MG IN 0.2 ML CORN OIL 2/WK FOR 4 WK, Promoter: NONE USED) is given as “(95%, 95%, 0%, not significant”.

For `[Mg+2]`, the “tumour outcome (control, treated, inhibition, significance)” value (Carcinogen: 7,12-DIMETHYLBENZ[A]ANTHRACENE, 57-97-6, Dose [Inhibitor]: 0, 50 UG/ML IN DRINKING WATER FROM 40-90 D OF AGE THEN 0, 30 UG/ML FROM 90-180 D OF AGE AND 0, 20 UG/ML FROM 180-240 D O, Dose [Inhibitor]: 0, 50 UG/ML IN DRINKING WATER FROM 40-90 D OF AGE THEN 0, 30 UG/ML FROM 90-180 D OF AGE AND 0, 20 UG/ML FROM 180-240 D O, Route [Inhibitor]: ORAL, Species: RAT, Strain/Sex: SPRAGUE DAWLEY/FEMALE, Target Tissue: Type of Lesion: MAMMARY GLAND: ADENOCARCINOMA, FIBROADENOMA, Dose [Carcinogen]: 5 MG IN 0.2 ML SESAME OIL 1/2 D FOR 12 D BEGINNING AT 50 D OF AGE, Promoter: NONE USED) is listed as 100%, 46%, 54%, p<0.001.

For `CCOC(=O)/C=C(C)/C=C/C=C(C)/C=C/c1c(C)cc(O)c(C)c1C`, the “tumour outcome (control, treated, inhibition, significance)” value (Carcinogen: 7,12-DIMETHYLBENZ[A]ANTHRACENE, 57-97-6, Dose [Inhibitor]: 140 NMOL IN 0.2 ML ACETONE 2/WK (D 1 AND D 4 OF EACH WK) 1 HR BEFORE EACH PROMOTER APPLICATION STARTING 14 D AFTER CARCI, Route [Inhibitor]: DERMAL, Species: MOUSE, Strain/Sex: CD-1/FEMALE, Target Tissue: Type of Lesion: SKIN: PAPILLOMA, Dose [Carcinogen]: 0.2 UMOL IN 0.2 ML ACETONE ONCE, Promoter: 12-O-TETRADECANOYLPHORBOL-13-ACETATE, 16561-29-8) is given as 90%, 95%, -6%, not significant.

For `COc1ccc2cc3[n+](cc2c1OC)CCc1cc2c(cc1-3)OCO2`, the “tumour outcome (control, treated, inhibition, significance)” value (Carcinogen: METHYLCHOLANTHRENE, 56-49-5, Dose [Inhibitor]: 0, 0.5 MG/KG BW BY GAVAGE 3/WK FOR 8 WK (STUDY DURATION: 180 D), Route [Inhibitor]: ORAL, Species: MOUSE, Strain/Sex: SWISS/MALE, Target Tissue: Type of Lesion: SKIN: SARCOMA, Dose [Carcinogen]: 200 UG/ANIMAL ONCE 5 D POST INHIBITOR TREATMENT) is given as 100%, 40%, 60%, not calculated, the “tumour outcome (control, treated, inhibition, significance)” value (Carcinogen: METHYLCHOLANTHRENE, 56-49-5, Dose [Inhibitor]: 0, 2.5 MG/KG BW BY GAVAGE 3/WK FOR 8 WK (STUDY DURATION: 180 D), Route [Inhibitor]: ORAL, Species: MOUSE, Strain/Sex: SWISS/MALE, Target Tissue: Type of Lesion: SKIN: SARCOMA, Dose [Carcinogen]: 200 UG/ANIMAL ONCE 5 D POST INHIBITOR TREATMENT) is given as 100%, 47%, 53%, not calculated and the “tumour outcome (control, treated, inhibition, significance)” value (Carcinogen: METHYLCHOLANTHRENE, 56-49-5, Dose [Inhibitor]: 0, 5 MG/KG BW BY GAVAGE 3/WK FOR 8 WK (STUDY DURATION: 180 D), Route [Inhibitor]: ORAL, Species: MOUSE, Strain/Sex: SWISS/MALE, Target Tissue: Type of Lesion: SKIN: SARCOMA, Dose [Carcinogen]: 200 UG/ANIMAL ONCE 5 D POST INHIBITOR TREATMENT) is given as 100%, 67%, 33%, not calculated. For the same compound, the “tumour outcome (control, treated, inhibition, significance)” value (Carcinogen: N,N-DIETHYLNITROSAMINE, 55-18-5, Dose [Inhibitor]: 0, 10 MG/KG BW BY GAVAGE 5 D/WK FOR 141 D (STUDY DURATION: 30 WK), Route [Inhibitor]: ORAL, Species: RAT, Strain/Sex: WISTAR/FEMALE, Target Tissue: Type of Lesion: LIVER: TUMOR, Dose [Carcinogen]: 0.02% IN DISTILLED WATER BY GAVAGE 5 D/WK FOR 20 WK BEGINNING 1 D POST INHIBITOR FIRST DOSE) was 100%, 100%, 0%, not significant, the “tumour outcome (control, treated, inhibition, significance)” value (Carcinogen: N,N-DIETHYLNITROSAMINE, 55-18-5, Dose [Inhibitor]: 0, 25 MG/KG BW BY GAVAGE 5 D/WK FOR 141 D (STUDY DURATION: 30 WK), Route [Inhibitor]: ORAL, Species: RAT, Strain/Sex: WISTAR/FEMALE, Target Tissue: Type of Lesion: LIVER: TUMOR, Dose [Carcinogen]: 0.02% IN DISTILLED WATER BY GAVAGE 5 D/WK FOR 20 WK BEGINNING 1 D POST INHIBITOR FIRST DOSE) was 100%, 50%, 50%, not significant and the “tumour outcome (control, treated, inhibition, significance)” value (Carcinogen: N,N-DIETHYLNITROSAMINE, 55-18-5, Dose [Inhibitor]: 0, 50 MG/KG BW BY GAVAGE 5 D/WK FOR 141 D (STUDY DURATION: 30 WK), Route [Inhibitor]: ORAL, Species: RAT, Strain/Sex: WISTAR/FEMALE, Target Tissue: Type of Lesion: LIVER: TUMOR, Dose [Carcinogen]: 0.02% IN DISTILLED WATER BY GAVAGE 5 D/WK FOR 20 WK BEGINNING 1 D POST INHIBITOR FIRST DOSE) was 100%, 50%, 50%, not significant.
